Laboratory results from the supplement of paper PMC11451515.

Tested on: NOMO1
Assay: cell viability relative to DMSO control; higher = less cytotoxic
Details: 48 h
In short: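 Viability is a per-plate percentage relative to DMSO wells, with cell-free wells as background. CellTiter-Glo One luminescence was read after 48 h at 37°C on 1536-well plates (5 μl) of NOMO1 or SEM (500 cells/well) or P12-Ichikawa (1000 cells/well) leukemia cells. The cells had been adapted for at least four passages in each medium and pin-dosed with library compounds in DMSO from 47 μM to 0.79 nM in 11 threefold steps.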

[1] = HPLM + 10% dialyzed FBS, 0.000781 µM
[2] = HPLM + 10% dialyzed FBS, 0.00234 µM
[3] = HPLM + 10% dialyzed FBS, 0.00702 µM
[4] = HPLM + 10% dialyzed FBS, 0.0211 µM
[5] = HPLM + 10% dialyzed FBS, 0.0632 µM
[6] = HPLM + 10% dialyzed FBS, 0.19 µM
[7] = HPLM + 10% dialyzed FBS, 0.569 µM
[8] = HPLM + 10% dialyzed FBS, 1.71 µM
[9] = HPLM + 10% dialyzed FBS, 5.12 µM
[10] = HPLM + 10% dialyzed FBS, 15.4 µM
[11] = HPLM + 10% dialyzed FBS, 46.1 µM
[12] = RPMI 5 mM glucose + 10% FBS, 0.000781 µM
[13] = RPMI 5 mM glucose + 10% FBS, 0.00234 µM
[14] = RPMI 5 mM glucose + 10% FBS, 0.00702 µM
[15] = RPMI 5 mM glucose + 10% FBS, 0.0211 µM
[16] = RPMI 5 mM glucose + 10% FBS, 0.0632 µM
[17] = RPMI 5 mM glucose + 10% FBS, 0.19 µM
[18] = RPMI 5 mM glucose + 10% FBS, 0.569 µM
[19] = RPMI 5 mM glucose + 10% FBS, 1.71 µM
[20] = RPMI 5 mM glucose + 10% FBS, 5.12 µM
[21] = RPMI 5 mM glucose + 10% FBS, 15.4 µM
[22] = RPMI 5 mM glucose + 10% FBS, 46.1 µM
[23] = RPMI 5 mM glucose + 10% dialyzed FBS, 0.000781 µM
[24] = RPMI 5 mM glucose + 10% dialyzed FBS, 0.00234 µM
[25] = RPMI 5 mM glucose + 10% dialyzed FBS, 0.00702 µM
[26] = RPMI 5 mM glucose + 10% dialyzed FBS, 0.0211 µM
[27] = RPMI 5 mM glucose + 10% dialyzed FBS, 0.0632 µM
[28] = RPMI 5 mM glucose + 10% dialyzed FBS, 0.19 µM
[29] = RPMI 5 mM glucose + 10% dialyzed FBS, 0.569 µM
[30] = RPMI 5 mM glucose + 10% dialyzed FBS, 1.71 µM
[31] = RPMI 5 mM glucose + 10% dialyzed FBS, 5.12 µM
[32] = RPMI 5 mM glucose + 10% dialyzed FBS, 15.4 µM
[33] = RPMI 5 mM glucose + 10% dialyzed FBS, 46.1 µM

| Compound | cell viability [1] | cell viability [2] | cell viability [3] | cell viability [4] | cell viability [5] | cell viability [6] | cell viability [7] | cell viability [8] | cell viability [9] | cell viability [10] | cell viability [11] | cell viability [12] | cell viability [13] | cell viability [14] | cell viability [15] | cell viability [16] | cell viability [17] | cell viability [18] | cell viability [19] | cell viability [20] | cell viability [21] | cell viability [22] | cell viability [23] | cell viability [24] | cell viability [25] | cell viability [26] | cell viability [27] | cell viability [28] | cell viability [29] | cell viability [30] | cell viability [31] | cell viability [32] | cell viability [33] |
| --- | --- | --- | --- | --- | --- | --- | --- | --- | --- | --- | --- | --- | --- | --- | --- | --- | --- | --- | --- | --- | --- | --- | --- | --- | --- | --- | --- | --- | --- | --- | --- | --- | --- |
| C[S+](=O)([O-])c1ccc(-c2cnc(N)c(C(=O)Nc3ccccc3)n2)cc1 | 113% | 119% | 128% | 126% | 118% | 145% | 123% | 103% | 115% | 52.1% | 56.1% | 110% | 110% | 112% | 110% | 111% | 133% | 113% | 116% | 110% | 87% | 98.4% | 95.6% | 93.1% | 99.7% | 104% | 106% | 113% | 117% | 112% | 110% | 75% | 69.3% |
| CN(C)c1nc(Cc2ccc(NC(=O)c3ccc4ccccc4c3)cc2)nc(Cl)c1CC(=O)O | 113% | 116% | 112% | 126% | 114% | 90.9% | 106% | 65.2% | 57.6% | 47.2% | 48.1% | 115% | 98.2% | 100% | 98.3% | 100% | 97% | 97.1% | 74.3% | 73% | 61.8% | 44.4% | 108% | 110% | 98.6% | 106% | 111% | 99.4% | 92.9% | 62.1% | 63.1% | 60.7% | 43.6% |
| Cc1ccc([S+](=O)([O-])Nc2nc3ccccc3nc2Nc2ccc3nsnc3c2)cc1 | 97.3% | 106% | 114% | 104% | 116% | 110% | 111% | 72.5% | 21.3% | 18% | 13.1% | 89.2% | 94.4% | 89.2% | 108% | 101% | 119% | 96.7% | 78.5% | 14% | 11.5% | 7.49% | 84.8% | 88.7% | 106% | 91.8% | 111% | 99.2% | 92.8% | 96.1% | 20.7% | 15.9% | 12.7% |
| O=C(O)/C=C/c1ccc(O)c(O)c1 | 104% | 125% | 104% | 107% | 127% | 124% | 118% | 118% | 104% | 94.7% | 67% | 124% | 100% | 109% | 107% | 97.9% | 98.9% | 92.5% | 111% | 101% | 92.2% | 25.2% | 105% | 118% | 106% | 102% | 106% | 115% | 107% | 112% | 101% | 105% | 47.9% |
| COC[C@H](c1ccc(C(F)(F)F)cc1)N1CCN(C2(C)CCN(C(=O)c3c(C)ncnc3C)CC2)C[C@H]1C.O=C(O)/C=C\C(=O)O | 85.7% | 106% | 106% | 107% | 114% | 99.8% | 111% | 70.7% | 63.5% | 62.2% | 49.9% | 87.9% | 95.7% | 101% | 97.5% | 93.8% | 103% | 91% | 83.8% | 65.1% | 56.3% | 62.8% | 83.9% | 108% | 92% | 104% | 99.8% | 105% | 101% | 91.8% | 75% | 50.9% | 51.7% |
| Cc1cnc(C(=O)O)c[n+]1[O-] |  |  |  |  |  |  |  |  |  |  |  | 109% | 122% | 110% | 127% | 129% | 115% | 101% | 118% | 105% | 103% | 112% |  |  |  |  |  |  |  |  |  |  |  |
| Nc1cc(C(F)(F)F)c(-c2cc(N3CCOCC3)nc(N3CCOCC3)n2)cn1 |  |  |  |  |  |  |  |  |  |  |  | 115% | 127% | 118% | 133% | 130% | 120% | 98.4% | 74.5% | 14.8% | 6.77% | 7.91% |  |  |  |  |  |  |  |  |  |  |  |
| Oc1cccc(-c2nc(N3CCOCC3)c3oc4ncccc4c3n2)c1 | 121% | 92.1% | 117% | 91.8% | 92.3% | 107% | 115% | 102% | 129% | 96.4% | 103% | 109% | 113% | 116% | 123% | 112% | 108% | 104% | 87.4% | 128% | 124% | 122% | 120% | 106% | 125% | 98.9% | 110% | 102% | 80.4% | 77.7% | 109% | 106% | 126% |
